Source: patent publication US20100099762A1, “COMBINATION THERAPY” (THE MENTAL HEALTH RESEARCH INSTITUTE OF VICTORIA, priority 2006, published 2010)

Tests used:
total glutathione levels = assay: Total glutathione in striatum and liver of rats after CHX depletion; type: in vivo, Sprague-Dawley rats; conditions: 400 mg/kg i.p. 90 minutes after CHX 75 mg/kg; killed 1 hour after treatment
Experimental: Male Sprague-Dawley rats aged nine weeks and weighing an average of 390 g, were used in the study. Animals were maintained on a twelve hour light-dark cycle with water and food ad libitum. Two animals were housed per cage with room temperature maintained at 22° C.
All pharmacological agents were administered by intraperitoneal injection (i.p.) in a volume of 1 ml/kg, except where otherwise stated. All agents were prepared using saline as a diluent. Brain GSH depletion was performed using cyclohexene-1-one (CHX), administered at 75 mg/kg. Animals were returned to their cage for 90 minutes prior to administration of N-acetyl cysteine (NAC) or N-acetyl cysteine amide (NACA or “AD4”). Animals were killed by decapitation 1 hour after NACA or NAC treatment.
Frontal cortex, striatum and liver samples were immediately excised on ice, weighed and sonicated in SSA buffer (5% sulfosalicylic acid in 100 mM disodium hydrogen orthophosphate, 100 mM sodium dihydrogen orthophosphate and 1 mM EDTA, pH 7.5, 5 mL/g wet tissue). The samples were subsequently centrifuged (22×10^3 g for 10 minutes, 4° C.) and the […] was taken and frozen at −80° C. until analysed.
Total glutathione levels (μmol GSH/gram tissue) were determined in all samples. Samples were assayed according to Baker et al. (1990). Reduced glutathione standards ranging from 0 to 320 ρmol of GSH in 50 μL were prepared in a background buffer identical to the samples (SSA buffer) and then treated in parallel with samples. 50 μl of sample or standard was placed on a 96-well microtiter plate with 100 μL of assay reagent (final concentration in well; 0.15 mM DTNB, 0.2 mM NADPH, 1.0 U glutathione reductase/mL). Plates were assayed for a total of 2 minutes at 414 nm using a Multiskan MCC/340 MK II plate reader and Genesis V3.05 computer software. All chemicals were purchased from Sigma-Aldrich. Statistical evaluation of the data was conducted using analysis of variance (ANOVA).

[1] = in vivo; cited from earlier work

In the case of `CC(=O)N[C@@H](CS)C(=O)O` [NAC, N-acetyl cysteine], the “Total glutathione levels in the brain striatum after CHX depletion” value (total glutathione levels) is listed as “rescue”, the “Total glutathione levels in the liver after CHX depletion” value (total glutathione levels) is listed as “rescue” and the “Human dosing without adverse effects” value [1] is listed as “up to 5 g/day”.
